Measured values taken from patent US10793579B2, “Bicyclic-fused heteroaryl or aryl compounds” (Pfizer Inc., priority 2014, dated 2020).
Read-outs that look alike come from different tables or passages of the source.

Key:
[1] = system: collagen-induced arthritis (hind paw volume); experiment: In Vivo Rat Collagen-Induced Arthritis Model; conditions: Lewis rat
Description: In Vivo Rat Collagen-Induced Arthritis Model.
Efficacy of IRAK4 compounds of the present invention was also evaluated in a rat in vivo model of rheumatoid arthritis (M. Hegen, J. C. Keith, Jr, M. Collins, C. L. Nickerson-Nutter, Ann. Rheum. Dis. 2008, 67, 1505-1515). An exemplary protocol for this in vivo model follows.
Female Lewis rats, approximately 7 weeks old, were immunized with an emulsion of type II collagen (CII) and incomplete Freund's adjuvant (IFA) on day 0 and received a boost of CII/IFA on day 7. Hind paw volume increase was taken by plethysmograph. Animals were randomly enrolled into treatment groups based on the development of disease. Beginning on day 11 post immunization, rats were enrolled into random treatment groups based on an increase in a single hind paw volume compared to day 7 post immunization baseline measurements.
Ten rats were enrolled per treatment group with the exception of the naive control group, which contained two rats. Day 0 was designated as the first treatment day, and paw measurements are taken daily by plethysmograph. The rats were weighed on a daily basis.
IRAK4 inhibitors are efficacious in the Lewis rat model of collagen-induced arthritis.

[2] = biological target: human IRAK4 FL (Full Length) (Homo sapiens (Human), UniProt Q9NWZ3); experiment: IRAK4 Enzymatic DELFIA Assay, Protocol A; type: biochemical; conditions: 0.6 mM ATP
[3] = system: R848-induced TNFα production by human peripheral blood mononuclear cells (PBMCs); experiment: R848 Induced TNFα in Human PBMC Assay; type: cell-based
Description: R848 Induced TNFα in Human PBMC Assay.
This protocol is for R848-induced TNFα production by human peripheral blood mononuclear cells (PBMCs). […] The assay is used to assess cell-based potency of small molecule inhibitors of IRAK4 in the absence of serum.
The PBMCs in the interphase layer were collected and washed with PBS via centrifugation multiple times until the supernatant is clear. The purified PBMCs were re-suspended in RPMI (Roswell Park Memorial Institute) media (Sigma-Aldrich).
For the assay, a compound dilution plate containing a top concentration of 4 mM compound in DMSO was serially diluted 4-fold for 11 times. 250 nL of the compound dilution plate was spotted into a 384-well, flat bottom with IId, TC-treated, black with clear bottom, sterile, polystyrene plate (Corning Life Sciences).
10 μL of anti-TNFα antibody labeled with MSD SULFO-TAG at 50 μg/mL was added to each well and allowed to incubate overnight at 4° C. […] The plates were then imaged on an MSD Sector Imager 6000.

[4] = Homo sapiens, PBMC, read-out: R848-induced TNFa PBMC IC50 (nM)
[5] = human PBMC, absence of serum, read-out: R848-induced TNFa PBMC IC50

human IRAK4 FL (Full Length), sequence (Q9NWZ3 whole entry): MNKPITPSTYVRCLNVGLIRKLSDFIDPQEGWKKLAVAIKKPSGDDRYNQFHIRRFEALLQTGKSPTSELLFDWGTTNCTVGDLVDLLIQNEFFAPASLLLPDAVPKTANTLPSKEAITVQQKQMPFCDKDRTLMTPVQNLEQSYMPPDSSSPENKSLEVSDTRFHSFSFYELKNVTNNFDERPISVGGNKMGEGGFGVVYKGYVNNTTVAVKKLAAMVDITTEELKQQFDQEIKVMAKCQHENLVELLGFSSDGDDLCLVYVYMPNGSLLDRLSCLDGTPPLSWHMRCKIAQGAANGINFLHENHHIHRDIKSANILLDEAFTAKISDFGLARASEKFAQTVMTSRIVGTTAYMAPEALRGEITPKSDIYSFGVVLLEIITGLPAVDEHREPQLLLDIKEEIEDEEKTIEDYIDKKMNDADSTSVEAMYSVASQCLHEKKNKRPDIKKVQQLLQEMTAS

CC(C)Oc1cc2c(OC[C@@H]3CCC(=O)N3)nccc2cc1C(N)=O [Example 26, 1-{[(2S)-5-oxopyrrolidin-2-yl]methoxy}-7-(propan-2-yloxy)isoquinoline-6-carboxamide]
days with significant reduction of hind paw swelling in CIA rats (t-test, p<0.05 vs. vehicle) ([1]; 30 mg/kg PO, BID, therapeutic treatment for 8 days): Day 2-Day 8
days with significant reduction of hind paw swelling in CIA rats (t-test, p<0.05 vs. vehicle) ([1]; 100 mg/kg PO, BID, therapeutic treatment for 8 days): Day 1-Day 8 (end)
hind paw swelling in CIA rats ([1]; 10 mg/kg PO, BID): transiently significant reduction in hind paw swelling only on Day 5 and Day 6 post treatment
hind paw swelling in CIA rats ([1]; therapeutic treatment BID daily for 8 days, t-test p<0.05 vs. vehicle): reduced the hind paw swelling in CIA rats significantly

COc1cc2c(OC[C@@H]3C[C@](F)(CC(F)(F)F)C(=O)N3)cccc2cc1C(N)=O [Example 241, 5-{[(2S,4S)-4-fluoro-5-oxo-4-(2,2,2-trifluoroethyl)pyrrolidin-2-yl]methoxy}-3-methoxynaphthalene-2-carboxamide]
IC50 [2]: 161 nM

COc1cc2c(OC[C@@H]3C[C@@](F)(CC(F)(F)F)C(=O)N3)cccc2cc1C(N)=O [Example 240, 5-{[(2S,4R)-4-fluoro-5-oxo-4-(2,2,2-trifluoroethyl)pyrrolidin-2-yl]methoxy}-3-methoxynaphthalene-2-carboxamide]
IC50 [2]: 2.3 nM

COc1cc2c(OC[C@H]3C[C@@H](F)C(=O)N3)nccc2cc1C(N)=O [Example 275, 1-{[(2R,4R)-4-fluoro-5-oxopyrrolidin-2-yl]methoxy}-7-methoxyisoquinoline-6-carboxamide]
IC50 [2]: 119 nM
IC50 [3, 4]: 5140 nM

COc1cc2c(OC[C@H]3NC(=O)[C@@H]4[C@@H](CF)[C@@H]43)nccc2cc1C(N)=O [Example 304, 1-{[(1R,2S,5S)-6-(fluoromethyl)-4-oxo-3-azabicyclo[3.1.0]hex-2-yl]methoxy}-7-methoxyisoquinoline-6-carboxamide]
IC50 [3, 5]: 35 nM

COc1cc2c(OC[C@H]3NC(=O)[C@H]4C3[C@H]4CF)nccc2cc1C(N)=O (stereo in doubt) [Example 303, 1-(((1S,2S,5S,6R)-6-(fluoromethyl)-4-oxo-3-azabicyclo[3.1.0]hexan-2-yl)methoxy)-7-methoxyisoquinoline-6-carboxamide]
IC50 [3, 5]: 6050 nM

Cc1ccc(-n2nc(C(C)(C)C)cc2NC(=O)Nc2ccc(OCCN3CCOCC3)c3ccccc23)cc1 [BIRB796, reference compound]
days with significant reduction of hind paw swelling in CIA rats (t-test, p<0.05 vs. vehicle) ([1]; 30 mg/kg PO, QD, positive control (p38 inhibitor)): Day 1-Day 8

C[C@@H]1[C@H](F)C(=O)N[C@@H]1COc1nccc2cc(C(N)=O)c(OC3CC3)cc12 [Example 281, 7-(cyclopropyloxy)-1-{[(2S,3S,4S)-4-fluoro-3-methyl-5-oxopyrrolidin-2-yl]methoxy}isoquinoline-6-carboxamide]
IC50 [3, 4]: 127 nM
